System: HeLa cells
Test: Potentiation Factor (PF50): MMS growth inhibition, SRB assay
Type: cell-based
Conditions: MMS 0-10 μg/ml, ratio IC50 control / IC50 + inhibitor; for PF50 (30 nM): PARP inhibitor at 30 nM; for PF50 (200 nM): PARP inhibitor at 200 nM
Experimental: The Potentiation Factor (PF50) for compounds is calculated as a ratio of the IC50 of control cell growth divided by the IC50 of cell growth+PARP inhibitor. Growth inhibition curves for both control and compound treated cells are in the presence of the alkylating agent methyl methanesulfonate (MMS). The test compounds were used at a fixed concentration of 0.2 micromolar. The concentrations of MMS were over a range from 0 to 10 μg/ml.
2,000 HeLa cells were seeded into each well of a flat-bottomed 96-well microtiter plate in a volume of 100 μl and incubated for 6 hours at 37° C. Cells were either replaced with media alone or with media containing PARP inhibitor at a final concentration of 30 nM or 200 nM. […] Cells treated with PARP inhibitor alone were used to assess the growth inhibition by the PARP inhibitor.
Cells were left for a further 16 hours before replacing the media and allowing the cells to grow for a further 72 hours at 37° C. The media was then removed and the cells fixed with 100 μl of ice cold 10% (w/v) trichloroacetic acid. The plates were incubated at 4° C. for 20 minutes and then washed four times with water. Each well of cells was then stained with 100 μl of 0.4% (w/v) SRB in 1% acetic acid for 20 minutes before washing four times with 1% acetic acid. Plates were then dried for 2 hours at room temperature. The dye from the stained cells was solubilized by the addition of 100 μl of 10 mM Tris Base into each well.

| SMILES | PF50 (30 nM) | PF50 (200 nM) |
| --- | --- | --- |
| O=C(c1cccc(Cc2n[nH]c(=O)c3ccccc23)c1)N1CCC(OC2CCCC2)CC1 [Compound 37, 4-(3-(4-(cyclopentyloxy)piperidine-1-carbonyl)benzyl)phthalazin-1(2H)-one] | 1.7 | 10.6 |
| Cc1cccc(OC2CCN(C(=O)c3cc(Cc4n[nH]c(=O)c5ccccc45)ccc3F)CC2)n1 [Compound 39, 4-(4-fluoro-3-(4-(6-methylpyridin-2-yloxy)piperidine-1-carbonyl)benzyl)phthalazin-1(2H)-one] | 1.4 |  |
| O=C(c1cc(Cc2n[nH]c(=O)c3ccccc23)ccn1)N1CCC(OC2CCCC2)CC1 [Compound 40, 4-((2-(4-(cyclopentyloxy)piperidine-1-carbonyl)pyridin-4-yl)methyl)phthalazin-1(2H)-one] | 2.2 | 19.8 |
| COC1CCN(C(=O)c2cc(Cc3n[nH]c(=O)c4cccc(N)c34)ccc2F)CC1 [Compound 46, 5-amino-4-(4-fluoro-3-(4-methoxypiperidine-1-carbonyl)benzyl)phthalazin-1(2H)-one] | 20.1 | 3.24 |
| CCOC1CCN(C(=O)c2cccc(Cc3n[nH]c(=O)c4ccccc34)c2)CC1 [Compound 47a, 4-(3-(4-ethoxypiperidine-1-carbonyl)benzyl)phthalazin-1(2H)-one] | 1.8 |  |
| CCOC1CCN(C(=O)c2cc(Cc3n[nH]c(=O)c4c(C)[nH]c(C)c34)ccc2F)CC1 [Compound 54, 4-(3-(4-ethoxypiperidine-1-carbonyl)-4-fluorobenzyl)-5,7-dimethyl-2,6-dihydro-1H-pyrrolo[3,4-d]pyridazin-1-one] | 1.3 |  |
| COC1CCN(C(=O)c2cc(Cc3n[nH]c(=O)c4c(C)[nH]c(C)c34)ccc2F)CC1 [Compound 58, 4-(4-fluoro-3-(4-methoxypiperidine-1-carbonyl)benzyl)-5,7-dimethyl-2,6-dihydro-1H-pyrrolo[3,4-d]pyridazin-1-one] | 1.0 |  |
| COC1CCN(C(=O)c2cc(Cc3n[nH]c(=O)c4c(C)n(C)c(C)c34)ccc2F)CC1 [Compound 60, 4-(4-fluoro-3-(4-methoxypiperidine-1-carbonyl)benzyl)-5,6,7-trimethyl-2,6-dihydro-1H-pyrrolo[3,4-d]pyridazin-1-one] | 1.0 |  |
| COC1CCN(C(=O)c2cc(Cc3n[nH]c(=O)c4c[nH]c(C)c34)ccc2F)CC1 [Compound 63, 4-(4-fluoro-3-(4-methoxypiperidine-1-carbonyl)benzyl)-5-methyl-2,6-dihydro-1H-pyrrolo[3,4-d]pyridazin-1-one] | 1.0 |  |
| COC1CCN(C(=O)c2cc(Cc3n[nH]c(=O)c4cc(Cl)ccc34)ccc2F)CC1 [Compound 69, 7-chloro-4-(4-fluoro-3-(4-methoxypiperidine-1-carbonyl)benzyl)phthalazin-1(2H)-one] | 1.7 |  |
| CC(C)(C)OC1CCN(C(=O)c2cc(Cc3n[nH]c(=O)c4ccccc34)ccc2F)CC1 [Compound 70, 4-(3-(4-tert-butoxypiperidine-1-carbonyl)-4-fluorobenzyl)phthalazin-1(2H)-one] | 32.1 | 19.5 |
| CC(C)(C)OC1CCN(C(=O)c2cccc(Cc3n[nH]c(=O)c4ccccc34)c2)CC1 [Compound 71, 4-[[3-[4-[(2-methylpropan-2-yl)oxy]piperidine-1-carbonyl]phenyl]methyl]-2H-phthalazin-1-one] | 4.0 | 8.9 |
| CC(C)(C)OC1CCN(C(=O)c2cc(Cc3n[nH]c(=O)c4ccccc34)ccn2)CC1 [Compound 73, 4-((2-(4-tert-butoxypiperidine-1-carbonyl)pyridin-4-yl)methyl)phthalazin-1(2H)-one] | 6.2 | 27.8 |
| CC1(O)CCN(C(=O)c2cc(Cc3n[nH]c(=O)c4ccccc34)ccc2F)CC1 [Compound 74, 4-(4-fluoro-3-(4-hydroxy-4-methylpiperidine-1-carbonyl)benzyl)phthalazin-1(2H)-one] | 1.5 |  |
| O=C(COC1CCN(C(=O)c2cc(Cc3n[nH]c(=O)c4ccccc34)ccc2F)CC1)N1CCOCC1 [Compound 77, 4-(4-fluoro-3-(4-(2-morpholino-2-oxoethoxy)piperidine-1-carbonyl)benzyl)phthalazin-1(2H)-one] | 3.1 |  |
| O=C(c1cc(Cc2n[nH]c(=O)c3ccccc23)ccc1F)N1CCC(OCCN2CCOCC2)CC1 [Compound 80, 4-(4-fluoro-3-(4-(2-morpholinoethoxy)piperidine-1-carbonyl)benzyl)phthalazin-1(2H)-one] | 1.5 |  |
| CN(C)C(=O)COC1CCN(C(=O)c2cc(Cc3n[nH]c(=O)c4ccccc34)ccc2F)CC1 [Compound 83, 2-(1-(2-fluoro-5-((4-oxo-3,4-dihydrophthalazin-1-yl)methyl)benzoyl)piperidin-4-yloxy)-N,N-dimethylacetamide] | 1.7 |  |
| O=C(COC1CCN(C(=O)c2cc(Cc3n[nH]c(=O)c4ccccc34)ccc2F)CC1)N1CC(F)(F)C1 [Compound 89, 4-(3-(4-(2-(3,3-difluoroazetidin-1-yl)-2-oxoethoxy)piperidine-1-carbonyl)-4-fluorobenzyl)phthalazin-1(2H)-one] | 1.9 |  |
| O=C(O)COC1CCN(C(=O)c2cc(Cc3n[nH]c(=O)c4ccccc34)ccc2F)CC1 [Compound 90, 2-(1-(2-fluoro-5-((4-oxo-3,4-dihydrophthalazin-1-yl)methyl)benzoyl)piperidin-4-yloxy)acetic acid] | 1.1 |  |
| COC[C@H](C)OC1CCN(C(=O)c2cc(Cc3n[nH]c(=O)c4ccccc34)ccc2F)CC1 [Compound 93, (S)-4-(4-fluoro-3-(4-(1-methoxypropan-2-yloxy)piperidine-1-carbonyl)benzyl)phthalazin-1(2H)-one] | 2.8 |  |
| COC1CCN(C(=O)c2cc(Cc3n[nH]c(=O)c4ccc(N)cc34)ccc2F)CC1 [Compound 99, 6-amino-4-(4-fluoro-3-(4-methoxypiperidine-1-carbonyl)benzyl)phthalazin-1(2H)-one] | 1.0 |  |
| COC1CCN(C(=O)c2cc(Cc3n[nH]c(=O)c4cccc(Cl)c34)ccc2F)CC1 [Compound 104a, 5-chloro-4-(4-fluoro-3-(4-methoxypiperidine-1-carbonyl)benzyl)phthalazin-1(2H)-one] | 1.3 |  |
| CCOC1CCN(C(=O)c2cc(Cc3n[nH]c(=O)c4cccc(Cl)c34)ccc2F)CC1 [Compound 104b, 5-chloro-4-(3-(4-ethoxypiperidine-1-carbonyl)-4-fluorobenzyl)phthalazin-1(2H)-one] | 2.2 |  |
| O=C(COC1CCN(C(=O)c2cc(Cc3n[nH]c(=O)c4ccccc34)ccc2F)CC1)N1CCCC1 [Compound 107, 4-(4-fluoro-3-(4-(2-oxo-2-(pyrrolidin-1-yl)ethoxy)piperidine-1-carbonyl)benzyl)phthalazin-1(2H)-one] | 1.7 |  |
| O=C(COC1CCN(C(=O)c2cc(Cc3n[nH]c(=O)c4ccccc34)ccc2F)CC1)N1CCCCC1 [Compound 113, 4-(4-fluoro-3-(4-(2-oxo-2-(piperidin-1-yl)ethoxy)piperidine-1-carbonyl)benzyl)phthalazin-1 (2H)-one] | 5.8 | 23.1 |
| COC1CCN(C(=O)c2cccc(Cc3n[nH]c(=O)c4cccc(Cl)c34)c2)CC1 [Compound 119a, 5-chloro-4-(3-(4-methoxypiperidine-1-carbonyl)benzyl)phthalazin-1(2H)-one] | 1.0 |  |
| CCOC1CCN(C(=O)c2cccc(Cc3n[nH]c(=O)c4cccc(Cl)c34)c2)CC1 [Compound 119b, 5-chloro-4-(3-(4-ethoxypiperidine-1-carbonyl)benzyl)phthalazin-1(2H)-one] | 1.2 |  |
| COc1cccc2c(=O)[nH]nc(Cc3ccc(F)c(C(=O)N4CCC(OC)CC4)c3)c12 [Compound 126a, 4-(4-fluoro-3-(4-methoxypiperidine-1-carbonyl)benzyl)-5-methoxyphthalazin-1(2H)-one] | 11.0 |  |
| CCOC1CCN(C(=O)c2cc(Cc3n[nH]c(=O)c4cccc(OC)c34)ccc2F)CC1 [Compound 126b, 4-(3-(4-ethoxypiperidine-1-carbonyl)-4-fluorobenzyl)-5-methoxyphthalazin-1(2H)-one] | 7.4 |  |
| CCOC1CCN(C(=O)c2cc(F)cc(Cc3n[nH]c(=O)c4cccc(Cl)c34)c2)CC1 [Compound 129a, 5-chloro-4-(3-(4-ethoxypiperidine-1-carbonyl)-5-fluorobenzyl)phthalazin-1(2H)-one] | 1.0 |  |

Reference: US8129380B2, “Phthalazinone derivatives” (AstraZeneca AB, priority 2008, dated 2012)
